What all share (format): physicochemical
Data set [1] can be described thus: Uptake of fluorescence labelled oligonucleotide on polymer 2.2 coated stent. As to conditions: polymer 2.2 coated stents; 30 minutes in 5 mg/ml solution in physiological saline. The procedure: Stents coated with polymer 2.2 were loaded with a 15-mer c-myc antisense oligonucleotide AACGTTGAGGGGCAT (sequence ID 2) labelled with a fluorescence label by immersing them for 30 minutes in a 5 mg/ml solution of the DNA in physiological saline.
The total loading was determined by placing 3 of the stents each into 3 ml PBS and sonicating for 30 minutes. The fluorescent label was quantified.

The nature of data set [2]: Loading of polymer films with FITC-Dextran. As to conditions: FITC-Dextran mwt 4400; polymer 1.1 and polymer 2.1 coatings. The protocol:
Steel strips (1 cm×1.5 cm) were cleaned in dichloromethane for 10 minutes using the ultra-sonics bath. 200 ul of a 50 mg/ml polymer solution was evenly coated onto the steel strips. For each polymer sample seven steel strips were coated. Coated steel strips were then dried overnight in a oven at 70° C. to cure the polymer films.
Six of the coated steel strips were placed polymer side down into a well containing a 1 mg/ml drug solution. One control sample was not loaded with drug. The steel strips were submerged for 1 hour. The steel strips were then removed from the well and the excess drug removed by dabbing the surface very gently with tissue. The steel strips were then allowed to dry for a further half hour at room temperature. Each sample was then dipped quickly in clean PBS solution to remove excess drug from the coating. (3 secs dip). Each steel strip was then placed in 3 ml of PBS solution contained in vials. Each vial was then sonicated for 20 mins at a bath temperature of 35° C. in order to extract the drug from the polymer coating. Each solution was then measured using fluorescence spectroscopy to determine the amount of drug uptake
In order to study the effect of drug molecular weight on the amount loaded into a polymer coating, a compound with a variety of molecular weights which could be detected by fluorescence had to be identified. […]

Data set [3] can be described thus: Abciximab loading and elution in vitro. The procedure: In this study ^125I-labelled abciximab was loaded onto stents coated with either polymer 2.2 or as a comparison a bare stent (no polymer) by immersing the stents in a solution of 2 mg/ml drug in phosphate buffered saline containing 0.001% polysorbate 80 to assist dissolution for 30 minutes at room temperature. The stents were removed and wick dried. The stents were then placed into channels each forming part of a separate circuit of recirculating ([…]) phosphate buffered saline containing 1% albumin at 37° C. The level of 1251 label remaining on the stent was determined by measuring the level of label in the circulating PBS over a period of 24 or 48 hours and reported in percentage terms. The total loading of drug on stent was also determined and found to be about 5 μg per stent for the stents coated with polymer 2.2.

The nature of data set [4]: Heparin loading and release, polymer 2.1 coated stents. The procedure: This study investigated the ability of polymer 2.1 coated stents to take up and release a sample of unfractionated heparin with an average molecular weight of approx. 10000D.
Loading was carried out by immersion of the coated stents into a solution of heparin in PBS. A range of conditions were used to investigate the loading onto the stents.
Table 6 Summary of conditions and results of heparin loading and release Notes—*the time where released heparin reaches maximum; **the maximum weight of heparin released during a releasing experiment (see maximum point of the release profile, FIG. 2)

A short description of data set [5]: Radiolabelled (35S) heparin loading and elution, polymer 2.2 coated stents. The protocol: Radiolabelled (^35S) heparin (MW 8-10 kDa) was loaded onto stents coated with polymer 2.2, from a 2 mg/ml aqueous solution. To determine the total loading the stents were placed into liquid scintillant and coated for radioactivity. The mean uptake of heparin was 11 μg per stent. The stents were each placed into a volume of PBS to determine the rate of elution of heparin over a 4 hour period.

The mark [6] stands for this setting: polymer 2.1 stent, loading 0.2 mg/ml, 30 min, released into 1 volume PBS.
Where [7] appears, read: polymer 2.1 stent, loading 2.0 mg/ml, 30 min, released into 0.5 volume PBS.
Where [8] appears, read: polymer 2.1 stent, loading 10 mg/ml, 5 min, released into 0.5 volume PBS.

For “AACGTTGAGGGGCAT [15-mer c-myc antisense oligonucleotide]”, the Total loading entry in data set [1] was “about 20 μg per stent”.

In the case of “Fluorescein Iso Thiocyanate Dextran [FITC-Dextran]”, the “Uptake into polymer coatings” value in data set [2] is “could not be detected”.

Regarding “abciximab: antibody (MW about 50 kDa) to glycoprotein IIb/IIIa”, in data set [3] (cationic polymer (2.2) vs bare stent, PBS with 1% albumin at 37° C.), the “Release time from stent” value is listed as “released over a more extended time”. Also, in data set [3] (stents coated with polymer 2.2, 2 mg/ml, 30 minutes, room temperature), the “Total loading of drug on stent” value was “about 5 μg per stent”.

For the substance heparin, the “Release from the stents” value in data set [4] (polymer 2.1 coated stents) is on record as “released from the stents over a prolonged period of time”. This substance registered a Total loading in data set [4] (polymer 2.1 stent, loading 0.2 mg/ml, 30 min) of 3.4 µg. Also, the “Tmax (time where released heparin reaches maximum)” value in data set [4] (setting [6]) was found to be 15 min; in data set [4] (setting [7]), 20 min; in data set [4] (setting [8]), 10 min. Also, the results for the “Wmax (maximum weight of heparin released)” value in data set [4] (setting [6]), in data set [4] (setting [7]) and in data set [4] (setting [8]) were 0.73 µg, 2.07 µg and 13.93 µg, respectively. In data set [5] (2 mg/ml aqueous solution), the “Mean uptake of heparin” value came to 11 μg per stent. Moreover, the Release pattern entry in data set [5] (elution into PBS over 4 hours) is reported as “released initially as a burst”. Further, the “Time to 100% release of heparin” value in data set [5] (elution into PBS, extrapolation of 4 hour release data) is reported as “about 24 hours”.

The values are drawn from US6746686B2, “Coated implants” (Biocompatibles UK Limited, priority 2001, dated 2004).
